From ChEMBL document CHEMBL1201862, “PubChem BioAssay data set” (2004)
One block for each molecule: values may come before it. Activity calls are given as the source filed them.

Legend:
[1] = biological target: Ras and Rab interactor 1/Tyrosine-protein kinase ABL1 (Homo sapiens, UniProt P00519+Q13671); type: functional;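 also: biochemical TR-FRET dose-response test measuring inhibition of binding between Rin1 and Abl proteins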
[2] = biological target: T1, Histone-lysine N-methyltransferase NSD2 (Homo sapiens, UniProt O96028); type: biochemical
T1 sequence (O96028 whole entry): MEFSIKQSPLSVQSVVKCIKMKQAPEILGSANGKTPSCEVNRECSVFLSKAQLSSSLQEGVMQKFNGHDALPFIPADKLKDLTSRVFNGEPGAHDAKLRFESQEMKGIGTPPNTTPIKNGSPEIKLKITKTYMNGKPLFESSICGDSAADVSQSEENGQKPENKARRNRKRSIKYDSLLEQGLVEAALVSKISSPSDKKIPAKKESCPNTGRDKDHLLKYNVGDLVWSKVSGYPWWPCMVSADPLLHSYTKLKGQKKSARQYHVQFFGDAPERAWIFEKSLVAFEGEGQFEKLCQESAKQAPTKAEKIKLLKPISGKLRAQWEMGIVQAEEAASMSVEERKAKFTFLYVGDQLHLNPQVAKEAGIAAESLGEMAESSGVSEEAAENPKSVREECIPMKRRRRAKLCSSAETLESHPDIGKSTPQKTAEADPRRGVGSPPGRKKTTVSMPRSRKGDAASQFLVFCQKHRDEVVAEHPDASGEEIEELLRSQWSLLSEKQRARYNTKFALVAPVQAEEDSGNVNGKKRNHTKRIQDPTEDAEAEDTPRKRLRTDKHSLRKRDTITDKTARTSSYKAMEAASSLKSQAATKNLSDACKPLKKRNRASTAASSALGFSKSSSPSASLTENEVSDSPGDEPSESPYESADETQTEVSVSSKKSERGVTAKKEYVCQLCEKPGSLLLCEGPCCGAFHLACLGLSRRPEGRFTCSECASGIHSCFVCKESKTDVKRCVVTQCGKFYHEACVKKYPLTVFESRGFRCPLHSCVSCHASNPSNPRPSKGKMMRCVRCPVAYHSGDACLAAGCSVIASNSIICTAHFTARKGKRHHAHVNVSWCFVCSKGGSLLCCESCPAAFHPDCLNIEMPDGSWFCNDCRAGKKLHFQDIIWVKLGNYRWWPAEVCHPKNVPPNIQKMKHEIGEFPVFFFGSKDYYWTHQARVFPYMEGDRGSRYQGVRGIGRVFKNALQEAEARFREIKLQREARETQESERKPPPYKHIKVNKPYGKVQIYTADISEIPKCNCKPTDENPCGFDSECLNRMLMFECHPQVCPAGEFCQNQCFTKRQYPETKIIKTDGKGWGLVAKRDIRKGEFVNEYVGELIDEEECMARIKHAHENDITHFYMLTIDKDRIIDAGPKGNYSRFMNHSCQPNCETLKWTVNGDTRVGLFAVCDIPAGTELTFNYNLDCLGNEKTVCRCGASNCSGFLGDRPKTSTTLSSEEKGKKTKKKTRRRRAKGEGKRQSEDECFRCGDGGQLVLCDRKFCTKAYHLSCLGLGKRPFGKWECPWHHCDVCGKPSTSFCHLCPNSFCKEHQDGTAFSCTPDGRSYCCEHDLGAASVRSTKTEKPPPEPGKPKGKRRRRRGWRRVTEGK

[3] = Shn3 3'UTR reporter inhibitors, dose response, cell-based, Clone20 osteoblasts, firefly luciferase, cherry-picked (AID 624132); type: functional;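 also: firefly luciferase luminescence from reporter carrying the Shn3 3'UTR in osteoblasts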
Protein Wnt-3a = Protein Wnt-3a (Mus musculus, UniProt P27467); experiment: Wnt3a-driven reporter signaling inhibition, dose response, selectivity assay for Gli-SUFU antagonist project, Wnt-LIGHT cells, luminescence (AID 651570); type: functional; details: read-out: IC50_Mean;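 also: Wnt-LIGHT reporter cells stimulated with conditioned medium from Wnt3a-producing cells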
[4] = control 3'UTR Renilla luciferase suppression, dose response, counter-screen for Shn3 inhibitor project, cell-based, Clone20-Shn3RL, cherry-picked (AID 624133); type: functional
[5] = biological target: T2, COUP transcription factor 2 (Homo sapiens, UniProt P24468); experiment: Luminescence-based cell-based high throughput dose response assay to identify inhibitors of COUP-TFII (NR2F2).; type: functional;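 also: HEK293 cells transiently cotransfected with COUP-TFII expression vector and reporter; luciferase reporter luminescence driven by COUP-TFII from the pX2-168 reporter plasmid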
T2 sequence (P24468 whole entry): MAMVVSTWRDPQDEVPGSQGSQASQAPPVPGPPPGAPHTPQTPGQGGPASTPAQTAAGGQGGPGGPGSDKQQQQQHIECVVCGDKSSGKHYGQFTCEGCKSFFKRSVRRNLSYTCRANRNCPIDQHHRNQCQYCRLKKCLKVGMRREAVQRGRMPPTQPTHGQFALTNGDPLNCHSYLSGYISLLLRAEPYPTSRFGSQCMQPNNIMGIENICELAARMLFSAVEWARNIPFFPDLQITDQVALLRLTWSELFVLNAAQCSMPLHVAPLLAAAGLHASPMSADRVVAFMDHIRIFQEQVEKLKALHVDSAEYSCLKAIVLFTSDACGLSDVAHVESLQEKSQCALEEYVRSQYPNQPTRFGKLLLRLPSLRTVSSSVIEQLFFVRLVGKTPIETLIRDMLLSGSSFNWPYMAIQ

[6] = HepG2 cell cytotoxicity, dose response, cytotoxicity control for Shn3 inhibitor project, CellTiter-Glo, cherry-picked (AID 624134); type: functional, cell-based
[7] = biological target: T3, Orexin/Hypocretin receptor type 1 (Homo sapiens, UniProt O43613); experiment: Homogeneous Time Resolved Fluorescence (HTRF)-based cell-based high throughput dose response assay for antagonists of the orexin 1 receptor (OX1R; HCRTR1). [Related pubchem assays (depositor defined):AID434989, AID435008, AID463079, AID485270, AID492963, AID492964, AID492965, AID493232, AID504717, AID504718]; type: functional
T3 sequence (O43613 whole entry): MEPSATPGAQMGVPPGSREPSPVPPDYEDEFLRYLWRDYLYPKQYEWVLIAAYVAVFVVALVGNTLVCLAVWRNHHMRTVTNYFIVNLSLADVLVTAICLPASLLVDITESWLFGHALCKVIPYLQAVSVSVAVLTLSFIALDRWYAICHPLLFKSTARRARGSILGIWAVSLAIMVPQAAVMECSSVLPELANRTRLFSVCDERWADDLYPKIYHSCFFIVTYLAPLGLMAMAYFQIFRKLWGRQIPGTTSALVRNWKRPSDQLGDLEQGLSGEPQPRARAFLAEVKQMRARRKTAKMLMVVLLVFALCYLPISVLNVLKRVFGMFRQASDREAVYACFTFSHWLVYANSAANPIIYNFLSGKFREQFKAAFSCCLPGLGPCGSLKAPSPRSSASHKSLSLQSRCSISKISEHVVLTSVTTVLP

Orexin receptor type 2 [8] = biological target: T4, Orexin receptor type 2 (Homo sapiens, UniProt O43614); experiment: Counterscreen assay for antagonists of the orexin 1 receptor (OX1R; HCRTR1): Homogeneous Time Resolved Fluorescence (HTRF)-based cell-based dose response assay for antagonists of the orexin 2 receptor (OX2R; HCRTR2), run by assay provider.; type: functional
T4 sequence (O43614 whole entry): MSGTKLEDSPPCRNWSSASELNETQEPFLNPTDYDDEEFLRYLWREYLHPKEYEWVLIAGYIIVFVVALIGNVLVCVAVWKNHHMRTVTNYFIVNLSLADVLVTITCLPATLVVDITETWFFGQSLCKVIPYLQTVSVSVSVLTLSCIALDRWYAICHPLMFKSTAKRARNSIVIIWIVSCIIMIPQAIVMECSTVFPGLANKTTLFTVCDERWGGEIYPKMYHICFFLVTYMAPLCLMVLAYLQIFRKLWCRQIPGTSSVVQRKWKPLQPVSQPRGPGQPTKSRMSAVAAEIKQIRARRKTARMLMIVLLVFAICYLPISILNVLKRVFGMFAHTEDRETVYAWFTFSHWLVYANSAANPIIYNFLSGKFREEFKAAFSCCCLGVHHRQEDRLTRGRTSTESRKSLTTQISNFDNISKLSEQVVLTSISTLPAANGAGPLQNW

[9] = (§1) Counterscreen for antagonists of the orexin 1 receptor (OX1R; HCRTR1): Fluorescence-based cell-based high throughput dose response assay to identify antagonists of the parental CHO cell line. [Related pubchem assays (depositor defined):AID434989, AID435008, AID463079, AID485270, AID492963, AID492964, AID492965, AID493232, AID504699, AID504701]; type: functional
CHO-K1 = experiment: as §1, with “Homogeneous time resolved fluorescence (HTRF)-based” for “Fluorescence-based”, “cell-based” for “cell-based high throughput”, “CHO-K1” for “CHO”; type: functional; details: Cricetulus griseus;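 also: potency for inhibition of ATP-stimulated IP1 production as antagonists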
Orexin receptor type 2 [10] = biological target: T4, Orexin receptor type 2; experiment: Counterscreen assay for antagonists of the orexin 1 receptor (OX1R; HCRTR1): Fluorescence-based cell-based dose response assay for antagonists of the orexin 2 receptor (OX2R; HCRTR2), run by assay provider.; type: functional
[11] = biological target: T3, Orexin/Hypocretin receptor type 1; experiment: Fluorescence-based cell-based high throughput dose response assay for antagonists of the orexin 1 receptor (OX1R; HCRTR1). [Related pubchem assays (depositor defined):AID434989, AID435008, AID463079, AID485270, AID492963, AID492964, AID492965, AID493232, AID504717, AID504718]; type: functional
[12] = Luminescence Cell-Based Dose Confirmation HTS to Identify Inhibitors of Platelet Dense Granule Release. [Related pubchem assays: 1663 (Primary HTS), 1678 (Summary of Project)]; type: functional
[13] = biological target: Luciferin 4-monooxygenase (Photinus pyralis, UniProt P08659); experiment: firefly luciferase enzyme inhibitors, dose response, biochemical, luminescence (AID 1891)
[14] = HepG2 cell cytotoxicity, dose response, cytotoxicity control, ATP luminescence, cherry-pick, activator set 2 (AID 1053143); type: functional, cell-based
[15] = biological target: Heat shock protein HSP 90-alpha (Homo sapiens, UniProt P07900); type: functional, organism-based
[16] = biological target: T5, RNA-editing ligase 1, mitochondrial (Trypanosoma brucei brucei, UniProt P86926); experiment: TbREL1 ligase inhibitors, dose response, biochemical, fluorescence, Trypanosoma brucei (AID 1117295); type: functional
T5 sequence (P86926 whole entry): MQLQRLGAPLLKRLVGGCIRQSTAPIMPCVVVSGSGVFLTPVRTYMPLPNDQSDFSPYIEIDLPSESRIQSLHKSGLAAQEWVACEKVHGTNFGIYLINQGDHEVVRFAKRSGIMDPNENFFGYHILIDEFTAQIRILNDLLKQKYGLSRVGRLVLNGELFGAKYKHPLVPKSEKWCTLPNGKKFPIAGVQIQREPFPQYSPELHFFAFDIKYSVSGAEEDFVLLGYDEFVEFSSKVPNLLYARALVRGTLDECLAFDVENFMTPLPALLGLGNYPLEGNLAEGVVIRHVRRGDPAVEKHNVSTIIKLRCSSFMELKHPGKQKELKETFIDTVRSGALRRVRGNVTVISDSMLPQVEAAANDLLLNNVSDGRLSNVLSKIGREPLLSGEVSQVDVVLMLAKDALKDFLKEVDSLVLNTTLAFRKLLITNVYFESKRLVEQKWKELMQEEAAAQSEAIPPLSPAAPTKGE

[17] = biological target: Mitochondrial peptide methionine sulfoxide reductase (Bos taurus, UniProt P54149); experiment: Absorbance-based biochemical high throughput dose response assay for activators of Methionine sulfoxide reductase A (MsrA).; type: functional
[18] = biological target: T6, Tyrosyl-DNA phosphodiesterase 2 (Homo sapiens, UniProt O95551); experiment: human TDP2 enzyme inhibitors, dose response, biochemical, epi absorbance, IC50 (AID 743297)
T6 sequence (O95551 whole entry): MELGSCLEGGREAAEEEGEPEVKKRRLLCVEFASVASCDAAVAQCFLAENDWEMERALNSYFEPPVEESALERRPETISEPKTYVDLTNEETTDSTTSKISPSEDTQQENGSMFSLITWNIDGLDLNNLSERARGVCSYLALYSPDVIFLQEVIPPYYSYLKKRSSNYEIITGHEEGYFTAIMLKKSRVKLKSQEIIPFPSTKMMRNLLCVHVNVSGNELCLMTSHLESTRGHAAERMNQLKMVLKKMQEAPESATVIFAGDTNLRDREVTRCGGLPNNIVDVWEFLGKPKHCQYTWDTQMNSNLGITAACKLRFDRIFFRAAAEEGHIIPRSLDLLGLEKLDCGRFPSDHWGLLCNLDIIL

Sequence of Ras and Rab interactor 1/Tyrosine-protein kinase ABL1 (P00519 whole entry): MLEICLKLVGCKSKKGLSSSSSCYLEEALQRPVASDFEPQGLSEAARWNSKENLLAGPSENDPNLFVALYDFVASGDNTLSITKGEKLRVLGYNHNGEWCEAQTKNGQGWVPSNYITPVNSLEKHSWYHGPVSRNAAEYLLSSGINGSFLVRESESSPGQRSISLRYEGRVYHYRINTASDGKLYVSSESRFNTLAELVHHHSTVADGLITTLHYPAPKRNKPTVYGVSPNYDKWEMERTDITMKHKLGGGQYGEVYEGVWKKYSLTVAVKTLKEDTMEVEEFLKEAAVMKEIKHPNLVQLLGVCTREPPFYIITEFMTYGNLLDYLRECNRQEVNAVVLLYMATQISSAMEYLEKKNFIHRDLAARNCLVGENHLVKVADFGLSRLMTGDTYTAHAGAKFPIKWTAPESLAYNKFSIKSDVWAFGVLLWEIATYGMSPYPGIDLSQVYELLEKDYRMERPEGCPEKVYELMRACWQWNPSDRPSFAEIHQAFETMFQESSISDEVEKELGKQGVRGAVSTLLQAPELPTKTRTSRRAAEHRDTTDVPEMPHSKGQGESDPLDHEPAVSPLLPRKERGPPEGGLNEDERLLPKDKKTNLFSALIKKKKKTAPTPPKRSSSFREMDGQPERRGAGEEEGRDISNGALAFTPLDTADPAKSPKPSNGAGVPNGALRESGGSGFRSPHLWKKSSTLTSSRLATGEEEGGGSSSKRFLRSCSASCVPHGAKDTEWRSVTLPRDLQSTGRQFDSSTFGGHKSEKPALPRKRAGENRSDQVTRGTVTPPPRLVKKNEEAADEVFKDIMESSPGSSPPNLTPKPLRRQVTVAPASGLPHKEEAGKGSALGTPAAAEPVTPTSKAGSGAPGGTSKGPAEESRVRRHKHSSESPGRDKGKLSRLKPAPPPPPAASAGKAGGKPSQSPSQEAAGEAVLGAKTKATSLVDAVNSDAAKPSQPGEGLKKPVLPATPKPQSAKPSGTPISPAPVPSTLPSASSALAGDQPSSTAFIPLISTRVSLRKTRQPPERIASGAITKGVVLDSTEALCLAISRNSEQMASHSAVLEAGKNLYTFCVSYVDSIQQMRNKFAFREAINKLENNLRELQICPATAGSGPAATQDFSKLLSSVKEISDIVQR
Sequence of Ras and Rab interactor 1/Tyrosine-protein kinase ABL1 (Q13671 whole entry): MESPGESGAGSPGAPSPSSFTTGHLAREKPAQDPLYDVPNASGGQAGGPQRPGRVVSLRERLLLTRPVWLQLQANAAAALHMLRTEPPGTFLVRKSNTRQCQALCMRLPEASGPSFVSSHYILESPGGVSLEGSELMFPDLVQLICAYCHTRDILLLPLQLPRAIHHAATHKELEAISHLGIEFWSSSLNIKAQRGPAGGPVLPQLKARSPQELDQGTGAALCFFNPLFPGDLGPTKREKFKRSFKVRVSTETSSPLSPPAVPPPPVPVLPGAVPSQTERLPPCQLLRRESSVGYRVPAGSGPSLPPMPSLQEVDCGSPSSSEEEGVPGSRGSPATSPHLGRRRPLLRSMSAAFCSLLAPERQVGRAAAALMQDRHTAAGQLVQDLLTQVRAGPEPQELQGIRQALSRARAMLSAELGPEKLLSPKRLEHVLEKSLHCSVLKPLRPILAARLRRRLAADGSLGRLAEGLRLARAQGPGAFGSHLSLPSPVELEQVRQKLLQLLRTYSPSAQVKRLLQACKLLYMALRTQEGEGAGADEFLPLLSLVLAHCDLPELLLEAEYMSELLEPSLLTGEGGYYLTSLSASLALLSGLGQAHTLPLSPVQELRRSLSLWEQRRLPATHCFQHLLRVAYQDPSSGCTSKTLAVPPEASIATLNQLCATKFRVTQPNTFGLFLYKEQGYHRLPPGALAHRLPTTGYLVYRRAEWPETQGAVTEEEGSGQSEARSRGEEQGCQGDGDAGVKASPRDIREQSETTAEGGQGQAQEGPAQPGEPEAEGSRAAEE
Sequence of Mitochondrial peptide methionine sulfoxide reductase (P54149 whole entry): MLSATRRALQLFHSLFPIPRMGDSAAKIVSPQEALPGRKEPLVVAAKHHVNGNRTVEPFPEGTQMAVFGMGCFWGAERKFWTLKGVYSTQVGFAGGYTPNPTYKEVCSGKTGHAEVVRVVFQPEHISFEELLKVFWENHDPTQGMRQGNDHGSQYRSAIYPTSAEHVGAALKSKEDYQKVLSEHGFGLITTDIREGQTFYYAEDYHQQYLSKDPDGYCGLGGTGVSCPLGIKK
Sequence of Protein Wnt-3a (P27467 whole entry): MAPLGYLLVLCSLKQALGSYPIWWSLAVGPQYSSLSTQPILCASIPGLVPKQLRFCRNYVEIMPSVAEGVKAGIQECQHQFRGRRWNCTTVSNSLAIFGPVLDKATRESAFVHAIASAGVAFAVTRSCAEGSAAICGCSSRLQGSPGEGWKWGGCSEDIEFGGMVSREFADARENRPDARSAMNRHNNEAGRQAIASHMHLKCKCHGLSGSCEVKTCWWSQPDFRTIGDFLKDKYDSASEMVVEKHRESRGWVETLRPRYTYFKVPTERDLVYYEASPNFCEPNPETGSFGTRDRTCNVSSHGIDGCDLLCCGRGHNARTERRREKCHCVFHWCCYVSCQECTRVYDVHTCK
Sequence of Luciferin 4-monooxygenase (P08659 whole entry): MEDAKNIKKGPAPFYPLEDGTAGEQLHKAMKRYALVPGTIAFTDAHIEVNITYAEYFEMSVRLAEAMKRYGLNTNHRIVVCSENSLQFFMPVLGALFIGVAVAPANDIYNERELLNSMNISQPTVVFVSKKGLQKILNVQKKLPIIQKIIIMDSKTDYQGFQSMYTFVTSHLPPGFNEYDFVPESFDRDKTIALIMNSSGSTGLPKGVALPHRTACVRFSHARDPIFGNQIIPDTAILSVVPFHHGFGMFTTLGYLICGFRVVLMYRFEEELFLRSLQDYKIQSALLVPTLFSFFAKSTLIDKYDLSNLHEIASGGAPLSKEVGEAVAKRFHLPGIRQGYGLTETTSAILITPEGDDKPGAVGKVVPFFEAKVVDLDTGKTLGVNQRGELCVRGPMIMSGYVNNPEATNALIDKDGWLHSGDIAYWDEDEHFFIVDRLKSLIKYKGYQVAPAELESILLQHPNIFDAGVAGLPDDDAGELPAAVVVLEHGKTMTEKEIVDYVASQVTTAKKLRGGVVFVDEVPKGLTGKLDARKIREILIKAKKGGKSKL

IC50 [1]: 2.62 µM (active)
Structure (SMILES): Cn1c(=O)c2c(nc(-n3ccnc3)n2Cc2ccc(Cl)cc2Cl)n(C)c1=O

IC50 [1]: 0.0967 µM (active)
AC50 [2]: 7.6 µM (active)
Structure (SMILES): CCOC(=O)CCCCC(=O)c1[nH]c(O)nc1CSc1nc2ccccc2[nH]1

Structure (SMILES): CC1C(OC(=O)CCC(=O)NC(C)(C)CO)O[C@H]2OC3(C)CC[C@H]4[C@H](C)CCC1C24OO3 (some centres not stated)
AC50 [3]: 0.495 µM (active)
IC50 (Protein Wnt-3a): 0.794 µM (active)
AC50 [4]: 0.841 µM (active)
IC50 [5]: > 85.4 µM (inactive)
AC50 [6]: > 70 µM (inactive)

Structure (SMILES): CCOC(=O)N1CCN(C(=O)CSc2ccc(-c3ccccc3)nn2)CC1
IC50 [7]: 2.12 µM (active)
IC50 (Orexin receptor type 2 [8]): > 50 µM (inactive)
IC50 [9]: > 49.7 µM (inactive)
IC50 (CHO-K1): > 66.2 µM (inactive)
IC50 (Orexin receptor type 2 [10]): > 88.8 µM (inactive)
IC50 [11]: 16.3 µM (inactive)

Structure (SMILES): COc1cccc2oc3ccc(C#Cc4ccccn4)cc3c(=O)c12
EC50 [12]: 5.1 µM (active)
IC50 [7]: 0.881 µM (active)
IC50 (Orexin receptor type 2 [8]): 0.82 µM (active)
IC50 [9]: > 49.8 µM (inactive)
IC50 (CHO-K1): > 66.2 µM (inactive)
IC50 (Orexin receptor type 2 [10]): > 88.8 µM (inactive)
EC50 [13]: 1.19 µM (active)
AC50 [14]: 16.4 µM (active)
IC50 [11]: 13.5 µM (inactive)

Structure (SMILES): Cc1noc(C)c1COc1ccc(C(=O)OCC(=O)N2CC(=O)Nc3ccccc32)cc1
IC50 [7]: 14.9 µM (inactive)
IC50 (Orexin receptor type 2 [8]): > 50 µM (inactive)
IC50 [9]: > 49.8 µM (inactive)
IC50 (CHO-K1): > 66.2 µM (inactive)
IC50 (Orexin receptor type 2 [10]): > 88.8 µM (inactive)
IC50 [11]: 0.861 µM (active)

Structure (SMILES): Cc1c(CCCl)c(Cl)n2c(nc3ccccc32)c1C#N
AC50 [3]: 0.912 µM (active)
AC50 [15]: 3.86 µM (active)
AC50 [4]: 2.98 µM (active)
AC50 [6]: 8.13 µM (active)

IC50 [16]: 28.3 µM (inactive)
EC50 [17]: 44.4 µM (inactive)
IC50 [18]: 4.46 µM (active)
AC50 [2]: 4.32 µM (active)
Structure (SMILES): COC1=CC(=O)c2nc(Cl)ccc2C1=O
